What was measured:
[1] = Scintigraphic images in animal and human tests; assay type: in vivo; settings: for usefulness for imaging the heart: in vivo
Description: Scintigrapic Imaging Procedure in Animals
(§1) Two rabbits were anesthetized with sodium pentobarbital and injected via an ear vein with 3-8 mCi of ^99m Tc-isonitrile complex. One rabbit was imaged using a gamma camera equipped with a pinhole collimator positioned directly over the chest. Three minute static images were acquired at 5, 10, […], 40, 50 and 60 minutes post injection. A second rabbit was used to investigate the relative whole body distribution of activity for 60 minutes post-injection. Immediately post-injection, 300 thousand count images were acquired in the following sequence of projections: chest, anterior heart, whole body, anterior heart, left lateral whole body, anterior heart, lateral heart, anterior heart.
Swine were sedated with intramuscular injections of Ketamine and acepromazine, and anesthetized with sodium pentobarbital. The animals were positioned for anterior image acquisition over the chest under a low energy, high resolution collimator and injected with 10-12 mCi ^99m Tc-isonitrile complex via a leg vein. The liver was covered with a lead shield, and three minute images were acquired at 5, 10, 20, 30, 40, 50 and 60 minutes post-injection.
After anesthetization with sodium pentobarbital, dogs were injected with 25 mCi of ^99m Tc and positioned for anterior chest image acquisition using a pinhole collimator. Again, three minute images were obtained at 5, 10, 20, 30, 40, 50 and 60 minutes post-injection.

[2] = rabbit, in vivo, iv
Description: (§2) Rabbits were anesthetized with Ketamine and Nembutal™ and positioned beneath a gamma camera to allow continuous collection of data including a chest and abdomen view. 1 mCi of the test agent as specified below was injected via an ear vein and data collected continuously at 60 second intervals for 60 minutes. Curves were generated by drawing regions of interest over selected tissues and normalizing to counts per minute per pixel.
The time of maximum activity in the liver post injection is "^t max", while "t1/2" is the apparent half life of the clearance curve from ^t max. The latter data is an estimate based on data collected to 60 minutes after administration. This assumes a simple exponential curve with time, although more extensive studies might indicate more components are actually present.

[3] = Scintigraphic imaging of the heart in rabbits; assay type: in vivo, rabbit
Description: as §1
FIG. 6(a) is a scintigraphic image of a rabbit injected with a complex of ^99m Tc-carboethoxyisopropylisonitrile at 5 minutes after injection, while FIG. 6(b) is a scintigraphic image of the same rabbit at 15 minutes after injection. FIG. 7(a) is a scintigraphic image of a rabbit injected with a complex of ^99m Tc-2-carboethoxyethylisonitrile at 1, 10, 15 and 20 minutes post injection. FIG. 7 (b) is a scintigraphic image of a rabbit injected with the above complex at 31 minutes post-injection. The heart is at (A), the gall bladder at (B) and the site of injection at (C). The interpretation of these images is known to the person of ordinary skill in this field.

[4] = rabbit, in vivo
Description: as §2
The complexes were prepared, injected and imaged as described above.

| Compound | t1/2 (apparent half life of the liver clearance curve from tmax) [2] | tmax (time of maximum activity in the liver post injection) [2] | lung clearance [4] | image quality ([1]; animal and human tests) | usefulness for imaging the heart [1] | resolution of the apex of the heart ([3]; by 20 minutes after injection, after liver clearance) | resolution of the myocardium ([3]; five minutes after injection) | visualization of the apex of the heart ([3]; initially, background noise from liver uptake) |
| --- | --- | --- | --- | --- | --- | --- | --- | --- |
| [C-]#[N+]C(C)C [CNC(CH3)2 R, R = --H, isopropylisonitrile, reference compound] | 98 min | 5 min | – | – | – | – | – | – |
| ^99m TC-hexakis carbo-t-butoxymethylisonitrile technetium [CNCH2 R, R = --COO^t C4 H9] | 25 min | 5 min | – | – | – | – | – | – |
| ^99m Tc-Hexakis-1-carbomethoxyisopropylisonitrile Technetium (I) [CNC(CH3)2 R, R = --COOCH3] | 35 min | 3 min | rapid lung clearance | – | particularly useful for imaging the heart | excellent resolution of the apex | very good to excellent resolution of the myocardium | initially prevents clear visualization of the apex of the heart |

Continued, in another order:

| t1/2 (apparent half life of the liver clearance curve from tmax) [2] | tmax (time of maximum activity in the liver post injection) [2] | lung clearance [4] | Compound | image quality ([1]; animal and human tests) | usefulness for imaging the heart [1] | resolution of the apex of the heart ([3]; by 20 minutes after injection, after liver clearance) | resolution of the myocardium ([3]; five minutes after injection) | visualization of the apex of the heart ([3]; initially, background noise from liver uptake) |
| --- | --- | --- | --- | --- | --- | --- | --- | --- |
| 17 min | 2 min | – | ^99m Tc-Hexakis-2-carboethoxyethylisonitrile Technetium (I) [CNCH2 CH2 R, R = --COOC2 H5] | excellent images in both animal and human tests | particularly useful for imaging the heart | – | – | – |
| 37 min | 1 min | – | Hexakis carbomethoxymethylisonitrile Technetium Cation [CNCH2 R, R = --COOCH3] | – | – | – | – | – |
| 88 min | 14 min | – | [C-]#[N+]C [CNCH2 R, R = --H, methyl isonitrile, reference compound] | – | – | – | – | – |
| 270 min | 2 min | – | [C-]#[N+]CC [CNCH(R)CH3, R = --H, ethyl isonitrile, reference compound] | – | – | – | – | – |

From patent US4735793A, “Carboxy, carboalkoxy and carbamile substituted isonitrile radionuclide complexes” (Massachusetts Institute of Technology, priority 1985, dated 1988)
